Test results published in patent US8796289B2 (AbbVie Inc., priority 2011, dated 2014).
Read-outs that look alike come from different tables or passages of the source.

Biological target: GST-tagged-Wee1 kinase (Homo sapiens, UniProt P30291)
Experiment: Wee1 time-resolved fluorescence equilibrium binding assay (displacement of Oregon Green-labeled ATP-competitive kinase probe)
Protocol: Wee1 kinase was assayed using a time-resolved fluorescence equilibrium binding assay monitoring displacement of a rapidly reversible Oregon Green-labeled ATP-competitive kinase probe (N-(2-(2-(2-(4-(4-(5-chloro-4-(2-(1-hydroxycyclobutyl)thiazol-5-yl)-1H-pyrrolo[2,3-b]pyridin-2-yl)phenyl)piperazin-1-yl)ethoxy)ethoxy)ethyl)-2′,7′-difluoro-3′,6′-dihydroxy-3-oxo-3H-spiro[isobenzofuran-1,9′-xanthene]-5-carboxamide) by competitive Wee1 inhibitors.

Sequence of GST-tagged-Wee1 kinase (P30291 whole entry): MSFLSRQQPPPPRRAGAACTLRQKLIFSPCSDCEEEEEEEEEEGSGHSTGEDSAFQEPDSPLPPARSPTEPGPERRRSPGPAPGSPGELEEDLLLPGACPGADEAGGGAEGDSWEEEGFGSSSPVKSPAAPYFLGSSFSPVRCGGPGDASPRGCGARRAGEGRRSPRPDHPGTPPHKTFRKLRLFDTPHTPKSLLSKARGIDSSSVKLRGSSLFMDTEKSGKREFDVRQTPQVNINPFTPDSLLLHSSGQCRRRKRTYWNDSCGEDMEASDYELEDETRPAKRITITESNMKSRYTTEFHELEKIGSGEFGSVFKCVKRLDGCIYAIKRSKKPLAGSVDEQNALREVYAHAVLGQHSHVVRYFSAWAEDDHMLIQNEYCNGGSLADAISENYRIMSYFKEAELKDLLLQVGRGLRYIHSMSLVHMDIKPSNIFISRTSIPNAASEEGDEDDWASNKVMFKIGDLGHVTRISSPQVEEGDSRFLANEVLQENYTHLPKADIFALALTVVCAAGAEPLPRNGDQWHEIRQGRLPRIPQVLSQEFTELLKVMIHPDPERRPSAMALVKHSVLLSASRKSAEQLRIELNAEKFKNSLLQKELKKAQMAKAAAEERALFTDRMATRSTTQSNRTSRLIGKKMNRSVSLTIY

Row | Molecule | Ki (read-out: Wee-1 inhibition Ki) | Ki
1 | 3-{[6-(2,6-dichlorophenyl)-8-methyl-5-oxo-5,6-dihydropyrimido[4,5-d]pyridazin-2-yl]amino}benzoic acid [Example 521] | 97 nM | 
2 | 6-(2,6-dichlorocyclohexa-1,5-dien-1-yl)-2-[(3-{[2-(dimethylamino)ethyl]amino}phenyl)amino]-8-methylpyrimido[4,5-d]pyridazin-5(6H)-one [Example 514] | 0.41 nM | 
3 | 6-(2,6-dichlorophenyl)-8-(3-furyl)-2-{[4-(4-methylpiperazin-1-yl)phenyl]amino}pyrimido[4,5-d]pyridazin-5(6H)-one [Example 95] | 0.1 nM | 
4 | 6-(2-chlorophenyl)-2-{[4-(4-isopropylpiperazin-1-yl)-3-methylphenyl]amino}-8-(2-thienyl)pyrimido[4,5-d]pyridazin-5(6H)-one [Example 166] | 0.8 nM | 
5 | 6-(2-chlorophenyl)-2-{[4-(4-methylpiperazin-1-yl)phenyl]amino}-8-(1-methyl-1H-pyrazol-4-yl)pyrimido[4,5-d]pyridazin-5(6H)-one [Example 86] | 1 nM | 
6 | 6-(2-chlorophenyl)-8-(2-furyl)-2-{[4-(4-methylpiperazin-1-yl)phenyl]amino}pyrimido[4,5-d]pyridazin-5(6H)-one [Example 33] | 0.3 nM | 
7 | 6-(2-chlorophenyl)-8-(6-chloropyridin-2-yl)-2-{[4-(4-methylpiperazin-1-yl)phenyl]amino}pyrimido[4,5-d]pyridazin-5(6H)-one [Example 77] | 0.7 nM | 
8 | 8-(6-chloropyridin-2-yl)-6-(2,6-dichlorophenyl)-2-{[4-(4-methylpiperazin-1-yl)phenyl]amino}pyrimido[4,5-d]pyridazin-5(6H)-one [Example 75] | 0.08 nM | 
9 | Cc1nn(C)c(=O)c2cnc(Nc3ccc(N4CCN(C)CC4)cc3)nc12 [Example 1, 6,8-dimethyl-2-{[4-(4-methylpiperazin-1-yl)phenyl]amino}pyrimido[4,5-d]pyridazin-5(6H)-one] |  | 1900 nM
10 | C=CCn1nc(C)c2nc(Nc3ccc(N4CCN(C)CC4)cc3)ncc2c1=O [Example 2, 6-allyl-8-methyl-2-{[4-(4-methylpiperazin-1-yl)phenyl]amino}pyrimido[4,5-d]pyridazin-5(6H)-one] |  | 140 nM
11 | CN1CCN(c2ccc(Nc3ncc4c(=O)n(C)nc(-c5ccccc5)c4n3)cc2)CC1 [Example 3, 6-methyl-2-{[4-(4-methylpiperazin-1-yl)phenyl]amino}-8-phenylpyrimido[4,5-d]pyridazin-5(6H)-one] |  | 180 nM
12 | CN1CCN(c2ccc(Nc3ncc4c(=O)[nH]nc(-c5ccccc5)c4n3)cc2)CC1 [Example 4, 2-{[4-(4-methylpiperazin-1-yl)phenyl]amino}-8-phenylpyrimido[4,5-d]pyridazin-5(6H)-one] |  | 25 nM
13 | C=CCn1nc(-c2ccccc2)c2nc(Nc3ccc(N4CCN(C)CC4)cc3)ncc2c1=O [Example 5, 6-allyl-2-{[4-(4-methylpiperazin-1-yl)phenyl]amino}-8-phenylpyrimido[4,5-d]pyridazin-5(6H)-one] |  | 6 nM
14 | CN1CCN(c2ccc(Nc3ncc4c(=O)n(C)nc(CCc5ccccc5)c4n3)cc2)CC1 [Example 6, 6-methyl-2-{[4-(4-methylpiperazin-1-yl)phenyl]amino}-8-(2-phenylethyl)pyrimido[4,5-d]pyridazin-5(6H)-one] |  | 680 nM
15 | C=CCn1nc(CCc2ccccc2)c2nc(Nc3ccc(N4CCN(C)CC4)cc3)ncc2c1=O [Example 7, 6-allyl-2-{[4-(4-methylpiperazin-1-yl)phenyl]amino}-8-(2-phenylethyl)pyrimido[4,5-d]pyridazin-5(6H)-one] |  | 250 nM
16 | CN1CCN(c2ccc(Nc3ncc4c(=O)n(CCC#N)nc(CCc5ccccc5)c4n3)cc2)CC1 [Example 8, 3-[2-{[4-(4-methylpiperazin-1-yl)phenyl]amino}-5-oxo-8-(2-phenylethyl)pyrimido[4,5-d]pyridazin-6(5H)-yl]propanenitrile] |  | 370 nM
17 | CN1CCN(c2ccc(Nc3ncc4c(=O)n(-c5ccccc5)nc(CCc5ccccc5)c4n3)cc2)CC1 [Example 9, 2-{[4-(4-methylpiperazin-1-yl)phenyl]amino}-6-phenyl-8-(2-phenylethyl)pyrimido[4,5-d]pyridazin-5(6H)-one] |  | 61 nM
18 | CN1CCN(c2ccc(Nc3ncc4c(=O)n(CC(F)(F)F)nc(CCc5ccccc5)c4n3)cc2)CC1 [Example 10, 2-{[4-(4-methylpiperazin-1-yl)phenyl]amino}-8-(2-phenylethyl)-6-(2,2,2-trifluoroethyl)pyrimido[4,5-d]pyridazin-5(6H)-one] |  | > 3140 nM
19 | CCCc1nn(C)c(=O)c2cnc(Nc3ccc(N4CCN(C)CC4)cc3)nc12 [Example 11, 6-methyl-2-{[4-(4-methylpiperazin-1-yl)phenyl]amino}-8-propylpyrimido[4,5-d]pyridazin-5(6H)-one] |  | 730 nM

Row | Molecule | Ki (read-out: Wee-1 inhibition Ki) | Ki
20 | Cc1ccccc1-n1nc(CCc2ccccc2)c2nc(Nc3ccc(N4CCN(C)CC4)cc3)ncc2c1=O [Example 12, 6-(2-methylphenyl)-2-{[4-(4-methylpiperazin-1-yl)phenyl]amino}-8-(2-phenylethyl)pyrimido[4,5-d]pyridazin-5(6H)-one] |  | 6 nM
21 | CN1CCN(c2ccc(Nc3ncc4c(=O)n(C)nc(C5CCCC5)c4n3)cc2)CC1 [Example 13, 8-cyclopentyl-6-methyl-2-{[4-(4-methylpiperazin-1-yl)phenyl]amino}pyrimido[4,5-d]pyridazin-5(6H)-one] |  | 620 nM
22 | CN1CCN(c2ccc(Nc3ncc4c(=O)[nH]nc(C5CCCC5)c4n3)cc2)CC1 [Example 14, 8-cyclopentyl-2-{[4-(4-methylpiperazin-1-yl)phenyl]amino}pyrimido[4,5-d]pyridazin-5(6H)-one] |  | 1100 nM
23 | C=CCn1nc(C2CCCC2)c2nc(Nc3ccc(N4CCN(C)CC4)cc3)ncc2c1=O [Example 15, 6-allyl-8-cyclopentyl-2-{[4-(4-methylpiperazin-1-yl)phenyl]amino}pyrimido[4,5-d]pyridazin-5(6H)-one] |  | 250 nM
24 | C=CCn1nc(CCC)c2nc(Nc3ccc(N4CCN(C)CC4)cc3)ncc2c1=O [Example 16, 6-allyl-2-{[4-(4-methylpiperazin-1-yl)phenyl]amino}-8-propylpyrimido[4,5-d]pyridazin-5(6H)-one] |  | 130 nM
25 | CCCc1nn(-c2ccccc2)c(=O)c2cnc(Nc3ccc(N4CCN(C)CC4)cc3)nc12 [Example 17, 2-{[4-(4-methylpiperazin-1-yl)phenyl]amino}-6-phenyl-8-propylpyrimido[4,5-d]pyridazin-5(6H)-one] |  | 36 nM
26 | CCCc1nn(-c2ccccc2C)c(=O)c2cnc(Nc3ccc(N4CCN(C)CC4)cc3)nc12 [Example 18, 6-(2-methylphenyl)-2-{[4-(4-methylpiperazin-1-yl)phenyl]amino}-8-propylpyrimido[4,5-d]pyridazin-5(6H)-one] |  | 4 nM
27 | CN1CCN(c2ccc(Nc3ncc4c(=O)n(-c5ccccc5)nc(Cc5ccccc5)c4n3)cc2)CC1 [Example 19, 8-benzyl-2-{[4-(4-methylpiperazin-1-yl)phenyl]amino}-6-phenylpyrimido[4,5-d]pyridazin-5(6H)-one] |  | 73 nM
28 | Cc1ccccc1-n1nc(Cc2ccccc2)c2nc(Nc3ccc(N4CCN(C)CC4)cc3)ncc2c1=O [Example 20, 8-benzyl-6-(2-methylphenyl)-2-{[4-(4-methylpiperazin-1-yl)phenyl]amino}pyrimido[4,5-d]pyridazin-5(6H)-one] |  | 19 nM
29 | CCCc1nn(CCC#N)c(=O)c2cnc(Nc3ccc(N4CCN(C)CC4)cc3)nc12 [Example 21, 3-[2-{[4-(4-methylpiperazin-1-yl)phenyl]amino}-5-oxo-8-propylpyrimido[4,5-d]pyridazin-6(5H)-yl]propanenitrile] |  | 350 nM
30 | C=CCn1nc(Cc2ccccc2)c2nc(Nc3ccc(N4CCN(C)CC4)cc3)ncc2c1=O [Example 22] |  | 700 nM
31 | CCCc1nn(CC(F)(F)F)c(=O)c2cnc(Nc3ccc(N4CCN(C)CC4)cc3)nc12 [Example 23, 2-{[4-(4-methylpiperazin-1-yl)phenyl]amino}-8-propyl-6-(2,2,2-trifluoroethyl)pyrimido[4,5-d]pyridazin-5(6H)-one] |  | 370 nM
32 | CN1CCN(c2ccc(Nc3ncc4c(=O)n(-c5ccccc5Cl)nc(CCc5ccccc5)c4n3)cc2)CC1 [Example 24, 6-(2-chlorophenyl)-2-{[4-(4-methylpiperazin-1-yl)phenyl]amino}-8-(2-phenylethyl)pyrimido[4,5-d]pyridazin-5(6H)-one] |  | 2 nM
33 | CCCc1nn(-c2ccccc2Cl)c(=O)c2cnc(Nc3ccc(N4CCN(C)CC4)cc3)nc12 [Example 25, 6-(2-chlorophenyl)-2-{[4-(4-methylpiperazin-1-yl)phenyl]amino}-8-propylpyrimido[4,5-d]pyridazin-5(6H)-one] |  | 1 nM
34 | CN1CCN(c2ccc(Nc3ncc4c(=O)n(-c5ccccc5Cl)nc(Cc5ccccc5)c4n3)cc2)CC1 [Example 26, 8-benzyl-6-(2-chlorophenyl)-2-{[4-(4-methylpiperazin-1-yl)phenyl]amino}pyrimido[4,5-d]pyridazin-5(6H)-one] |  | 12 nM
35 | CN1CCN(c2ccc(Nc3ncc4c(=O)n(-c5ccccc5)nc(-c5ccccc5)c4n3)cc2)CC1 [Example 27, 2-{[4-(4-methylpiperazin-1-yl)phenyl]amino}-6,8-diphenylpyrimido[4,5-d]pyridazin-5(6H)-one] |  | 2 nM
36 | Cc1ccccc1-n1nc(-c2ccccc2)c2nc(Nc3ccc(N4CCN(C)CC4)cc3)ncc2c1=O [Example 28, 6-(2-methylphenyl)-2-{[4-(4-methylpiperazin-1-yl)phenyl]amino}-8-phenylpyrimido[4,5-d]pyridazin-5(6H)-one] |  | 0.8 nM
37 | CN1CCN(c2ccc(Nc3ncc4c(=O)n(-c5ccccc5Cl)nc(-c5ccccc5)c4n3)cc2)CC1 [Example 29, 6-(2-chlorophenyl)-2-{[4-(4-methylpiperazin-1-yl)phenyl]amino}-8-phenylpyrimido[4,5-d]pyridazin-5(6H)-one] |  | < 1 nM
